# Measurements taken from PMC5938390, “Tachyplesin Causes Membrane Instability That Kills Multidrug-Resistant Bacteria by Inhibiting the 3-Ketoacyl Carrier Protein Reductase FabG” (Frontiers in Microbiology, 2018).
# Positions of bridges follow the written chain, without caps; N, C: chain ends. Residues, ends and D or L forms follow the SMILES beside them.
# Legend:
# A. baumannii 1408 = test: Transcriptome analysis (RNA sequencing, FPKM, DESeq); format: cell-based, Acinetobacter baumannii; details: Ab; Ta 16 μg/ml, 30 min, 37°C
# Description: (§1) The Vitek 32 system (bioMerieux, France) and 16S rDNA sequencing were used to verify the clinical isolates A. baumannii 1408, P. aeruginosa 1409, Klebsiella pneumoniae 5 and E. coli 513, which were grown overnight in Luria-Bertani (LB) medium at 37°C with constant shaking at 220 rpm to reach the middle of their logarithmic growth phase. […] After the addition of 2 volumes of RNAprotect Bacteria Reagent (QIAGEN) to stabilized RNA, samples were vortexed for 5 s, incubated for 5 min at room temperature (15–25°C) and collected by centrifugation at 4°C for 5 min at 4000 g.
# (§2) RNA isolation and sequencing were performed by Novogene Bioinformatics Technology Co., Ltd. (Beijing, China) as previously described ([Liu B. et al., 2014]). Clean reads were mapped to the corresponding bacterial genomes using Bowtie 2 software ([Langmead and Salzberg, 2012]). Gene expression was calculated using the FPKM (expected number of fragments per kilobase of transcript sequence per millions of base pairs sequenced) method with HTSeq software (union model) ([Anders et al., 2015]). Differentially expressed genes were selected based on the DESeq R package with Padj values < 0.05 ([Anders and Huber, 2010]). KEGG pathway analysis was performed using KOBAS (2.0), and the corrected p value cut-off was set at 0.05 ([Li et al., 2015]).
# K. pneumoniae 5 = test: MIC against clinical isolate; format: cell-based, Klebsiella pneumoniae
# FabG from E. coli = biological target: T1, FabG from E. coli (Escherichia coli, UniProt P0AEK2); test: Surface plasmon resonance binding; details: tachyplesin III on CM5 chip, FabG 1.25-10 μg/mL injected, HBS-N buffer
# T1 construct: His tag (N); made in house; host or cells: E. coli BL21 DE3 (vector pET28a)
# T1 sequence (P0AEK2 1-244): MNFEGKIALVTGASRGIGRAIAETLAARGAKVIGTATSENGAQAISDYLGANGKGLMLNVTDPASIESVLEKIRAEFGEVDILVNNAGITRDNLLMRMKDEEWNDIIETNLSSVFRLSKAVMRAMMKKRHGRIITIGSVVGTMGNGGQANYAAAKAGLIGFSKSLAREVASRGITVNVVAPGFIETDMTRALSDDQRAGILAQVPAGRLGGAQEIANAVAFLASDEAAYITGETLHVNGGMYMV
# Description: (§3) N-terminal His-tagged FabG from E. coli and C-terminal His-tagged FabG from Staphylococcus aureus were cloned into the NcoI and XhoI cloning sites of the vector pET28a, expressed in BL21 DE3 E. coli and further purified with Ni resin ([Kristan et al., 2009]; [Srinivas and Cronan, 2017]). The binding interaction between tachyplesin III and FabG was analyzed by surface plasmon resonance (SPR) with a Biocore 3000 (Biocore, Piscataway, NJ, United States). Briefly, tachyplesin III was adsorbed onto a CM5 sensor chip using an amine-coupling kit (GE Healthcare, Little Chalfont, United Kingdom) to obtain approximately 1000 resonance units. […] The binding affinity of FabG for tachyplesin III was determined by BIAevaluation 3.0 software (Biacore) with a 1:1 Langmuir binding model for the kinetic calculation ([Wei et al., 2013]).
# (§4) FIGURE 7 Tachyplesin III binding with FabG inhibits its enzyme activities in vitro, probably by blocking the active site. Binding interactions between tachyplesin III and FabG from E. coli (A) or from S. aureus (E) were analyzed by surface plasmon resonance (SPR) with a Biocore 3000 (Biocore, Piscataway, NJ, United States). […] Statistical significance was analyzed by one-way ANOVA followed by the Newman–Keuls multiple-comparisons test, ^∗∗p < 0.01, ^∗p < 0.05.
# FabG from S. aureus = biological target: T2, FabG from S. aureus (Staphylococcus aureus, UniProt P0A0H9); test: Surface plasmon resonance binding; details: tachyplesin III on CM5 chip, FabG 1.25-10 μg/mL injected, HBS-N buffer
# T2 construct: His tag (C); made in house; host or cells: E. coli BL21 DE3 (vector pET28a)
# T2 sequence (P0A0H9 1-246): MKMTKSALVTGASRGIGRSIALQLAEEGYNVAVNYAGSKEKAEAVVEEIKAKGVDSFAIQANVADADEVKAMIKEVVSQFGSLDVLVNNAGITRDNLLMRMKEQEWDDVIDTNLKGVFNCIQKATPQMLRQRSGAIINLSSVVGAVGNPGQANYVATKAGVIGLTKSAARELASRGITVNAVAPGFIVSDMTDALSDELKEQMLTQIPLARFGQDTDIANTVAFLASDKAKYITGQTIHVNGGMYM
# Description: as §3, §4
# P. aeruginosa 1409 = format: cell-based, Pseudomonas aeruginosa; details: Pa; Ta 16 μg/ml, 30 min, 37°C
# Description: as §1, §2
# [1] = test system: Escherichia coli strain DH5α; test: Stability in sterile deionized water, read out as MIC against DH5α; format: physicochemical; details: 37°C, 2 mg/ml, stability judged by MIC against DH5α
# Description: These studies were carried out as we previously reported with slight modifications and briefly introduced as follows ([Liu et al., 2017]). […] Cytotoxicity in different cell lines was assessed using the Cell Proliferation Kit II (XTT) (Roche), and cytotoxicity in hemocytes was evaluated by the increase in the absorbance at 540 nm after peptide incubation. Membrane rupture was indicated by the entrance of the DNA-binding fluorescent dye PI into MDR clinical isolates of P. aeruginosa strain 1409. Membrane translocation of N-terminal FITC-conjugated tachyplesin III (purity ≥ 95%, synthesized by GL Biochem Co., Ltd, Shanghai, China) into MDR clinical isolates of Acinetobacter baumannii strain 1408 were detected by confocal laser-scanning microscopy.
# Tachyplesin III (2 mg/ml) was incubated in either sterile deionized water or mouse serum at 37°C for various lengths of time, aliquots were taken, and MICs against DH5α cells were tested. Stability of the MIC indicates the stability of tachyplesin III.
smiles,measurement,setting,value
"CC[C@H](C)[C@@H]1NC(=O)CNC(=O)[C@H](CCCNC(=N)N)NC(=O)[C@H](Cc2ccc(O)cc2)NC(=O)[C@@H]2CSSC[C@H](NC1=O)C(=O)N[C@@H](Cc1ccc(O)cc1)C(=O)N[C@@H](CCCNC(=N)N)C(=O)N[C@@H](CCCCN)C(=O)N[C@H](C(=O)N[C@@H](CCCNC(=N)N)C(N)=O)CSSC[C@H](NC(=O)[C@H](Cc1c[nH]c3ccccc13)NC(=O)[C@@H](N)CCCCN)C(=O)N[C@@H](Cc1ccccc1)C(=O)N[C@@H](CCCNC(=N)N)C(=O)N[C@@H](C(C)C)C(=O)N2 [tachyplesin III] (H-KWCFRVCYRGICYRKCR-NH2; disulfide 3-16, 7-12 (inferred); N-terminus and C-terminus assumed)","Fold change after Ta treatment, gene A1S_2061 (3-ketoacyl-acyl carrier protein reductase)",A. baumannii 1408,2.89
same,16 μg/ml tachyplesin III expressed as multiple of MIC,K. pneumoniae 5,1/2
same,binding with FabG (SPR),FabG from E. coli,could bind
same,binding with FabG (SPR),FabG from S. aureus,could bind
same,"Fold change after Ta treatment, gene PADK2_09275 (3-hydroxyacyl-CoA dehydrogenase)",P. aeruginosa 1409,2.04
same,"Fold change after Ta treatment, gene PADK2_25405 (3-ketoacyl-acyl carrier protein reductase)",P. aeruginosa 1409,2.71
same,time stable in sterile deionized water,[1],~48 h
